Results reported in ChEMBL document CHEMBL6120974, “Hydrazide-Based Class I Selective HDAC Inhibitors Completely Reverse Chemoresistance Synergistically in Platinum-Resistant Solid Cancer Cells” (J Med Chem, 2024).
Calls of active or inactive are those of the source. The rule behind the calls is not given here.

How the values were obtained:
cells [1] = conditions: Homo sapiens, A2780cisR
Description: Inhibition of class IIa/8 HDAC (unknown origin) in cisplatin resistant human A2780 cisR cells using Boc-Lys(TFA)-AMC as substrate preincubated with compound for 18 hrs followed by substrate addition and measured after 3 hrs by NOVOstar microplate reader analysis

A2780cisR [2] = experiment: Effect on survivin expression in human cisplatin resistant human A2780 cisR cells at 2 uM in presence of cisplatin at 16 uM preincubated with compound for 48 hrs prior to addition of cisplatin and measured after 24 hrs by Immunoblotting analysis; type: functional, cell-based; conditions: time 72.0 hrs
Cal27CisR [3] = experiment: Induction of apoptosis in cisplatin resistant human Cal27CisR cells assessed as increase in caspase 3/7 activation at 0.316 uM in presence of cisplatin preincubated with compound for 48 hrs co-treated with cisplatin and measured after 24 hrs by capase3/7 green dye based analysis; type: functional, cell-based; conditions: time 72.0 hrs
A2780cisR [4] = experiment: (§1) Induction of DNA damage in cisplatin resistant human A2780 cisR cells assessed as increase in gammaH2AX formation at 2 uM in presence of cisplatin at 16 uM pretreated with compound for 48 hrs prior to addition of cisplatin and measured after 24 hrs by Hoechst 33342 staining based Immunofluorescence analysis; type: functional, cell-based; conditions: time 72.0 hrs
CAL-27 [5] = experiment: Downregulation of survivin expression in human CAL-27 cells at 0.316 uM in presence of cisplatin at 3 uM preincubated with compound for 48 hrs prior to addition of cisplatin and measured after 24 hrs by Immunoblotting analysis; type: functional, cell-based; conditions: time 72.0 hrs
cells [6] = conditions: Homo sapiens, A2780
Description: Inhibition of class I/6 HDAC (unknown origin) in human A2780 cells using Boc-Lys(epsilon-Ac)-AMC as substrate preincubated with compound for 18 hrs followed by substrate addition and measured after 3 hrs by NOVOstar microplate reader analysis

cells [7] = conditions: Homo sapiens, A2780; remark: listed apart in the source
Description: Inhibition of class IIa/8 HDAC (unknown origin) in human A2780 cells using Boc-Lys(TFA)-AMC as substrate preincubated with compound for 18 hrs followed by substrate addition and measured after 3 hrs by NOVOstar microplate reader analysis

A2780 [8] = experiment: Induction of apoptosis in human A2780 cells assessed as increase in apoptotic nuclei at sub-G1 phase at 2 uM incubated for 48 hrs by flow cytometric analysis; type: functional, cell-based
Cal27CisR [9] = experiment: Induction of apoptosis in cisplatin resistant human Cal27CisR cells assessed as increase in BIM expression at 0.316 uM in presence of cisplatin at 16.5 uM preincubated with compound for 48 hrs prior to addition of cisplatin and measured after 24 hrs by Immunoblotting analysis; type: functional, cell-based; conditions: time 72.0 hrs
A2780 [10] = experiment: Induction of apoptosis in human A2780 cells assessed as caspase-3/7 activation at 2 uM incubated for 48 hrs by capase3/7 green dye based analysis; type: functional, cell-based
Cal27CisR [11] = experiment: Induction of apoptosis in cisplatin resistant human Cal27CisR cells assessed as apoptotic nuclei at sub-G1 phase at 0.316 uM incubated for 48 hrs by flow cytometric analysis; type: functional, cell-based
CAL-27 [12] = experiment: Induction of apoptosis in human CAL-27 cells assessed as caspase-3/7 activation at 0.316 uM incubated for 48 hrs by capase3/7 green dye based analysis; type: functional, cell-based
CAL-27 [13] = experiment: Induction of apoptosis in human CAL-27 cells assessed as increase in caspase 3/7 activation at 0.316 uM in presence of cisplatin preincubated with compound for 48 hrs co-treated with cisplatin and measured after 24 hrs by capase3/7 green dye based analysis; type: functional, cell-based; conditions: time 72.0 hrs
A2780cisR [14] = experiment: Downregulation of survivin expression in cisplatin resistant human A2780 cisR cells at 2 uM incubated for 48 hrs by Immunoblotting analysis; type: functional, cell-based
A2780cisR [15] = experiment: Induction of apoptosis in cisplatin resistant human A2780 cisR cells assessed as decrease in Bcl-2 protein level at 2 uM incubated for 48 hrs by Immunoblotting analysis; type: functional, cell-based
HL-60 = experiment: cells; conditions: Homo sapiens, HL-60, 72 h
Description: Cytotoxicity against human HL-60 cells harboring p53 null assessed as cell viability incubated for 72 hrs by MTT assay

A2780cisR [16] = experiment: Induction of apoptosis in cisplatin resistant human A2780 cisR cells assessed as increase in apoptotic nuclei at sub-G1 phase at 2 uM incubated for 48 hrs by flow cytometric analysis; type: functional, cell-based
A2780cisR [17] = experiment: Effect on survivin expression in human cisplatin resistant human A2780 cisR cells at 2 uM incubated for 48 hrs by Immunoblotting analysis; type: functional, cell-based
Cal27CisR [18] = experiment: as §1, with “human Cal27CisR” for “human A2780 cisR”, “at 0.316” for “at 2”, “at 16.5” for “at 16”; type: functional, cell-based; conditions: time 72.0 hrs
cells [19] = conditions: Homo sapiens, Cal27CisR, 72 h
Description: Cytotoxicity against cisplatin resistant human Cal27CisR cells assessed as reduction in cell viability incubated for 72 hrs by MTT assay

CAL-27 [20] = experiment: Downregulation of BAX expression in human CAL-27 cells at 0.316 uM incubated for 48 hrs by Immunoblotting analysis; type: functional, cell-based
A2780cisR [21] = experiment: Induction of apoptosis in cisplatin resistant human A2780 cisR cells assessed as caspase-3/7 activation at 2 uM incubated for 48 hrs by capase3/7 green dye based analysis; type: functional, cell-based
CAL-27 [22] = experiment: Induction of cell cycle arrest in human CAL-27 cells assessed as increase in p21 expression at 0.316 uM incubated for 48 hrs by Western blotting analysis; type: functional, cell-based
Cal27CisR [23] = experiment: Induction of apoptosis in human Cal27CisR cells assessed as increase in BIM expression at 0.316 uM incubated for 48 hrs by Immunoblotting analysis; type: functional, cell-based
A2780cisR [24] = experiment: Induction of apoptosis in cisplatin resistant human A2780 cisR cells assessed as increase in BIM expression at 2 uM incubated for 48 hrs by Immunoblotting analysis; type: functional, cell-based
Cal27CisR [25] = experiment: Induction of apoptosis in cisplatin resistant human Cal27CisR cells assessed as caspase-3/7 activation at 0.316 uM incubated for 48 hrs by capase3/7 green dye based analysis; type: functional, cell-based
A2780 [26] = experiment: Downregulation of survivin expression in human A2780 cells at 0.75 uM incubated for 48 hrs by Immunoblotting analysis; type: functional, cell-based
cells [27] = conditions: Homo sapiens, Cal27CisR
Description: Inhibition of class IIa/8 HDAC (unknown origin) in cisplatin resistant human Cal27CisR cells using Boc-Lys(TFA)-AMC as substrate preincubated with compound for 18 hrs followed by substrate addition and measured after 3 hrs by NOVOstar microplate reader analysis

CAL-27 [28] = experiment: Induction of apoptosis in human CAL-27 cells assessed as increase in Bcl-2 protein level at 0.316 uM incubated for 48 hrs by Immunoblotting analysis; type: functional, cell-based
A2780 [29] = experiment: Downregulation of BAX expression in human A2780 cells at 0.75 uM incubated for 48 hrs by Immunoblotting analysis; type: functional, cell-based
cells [30] = conditions: Homo sapiens, Cal27CisR; remark: listed apart in the source
Description: Inhibition of class I/6 HDAC (unknown origin) in cisplatin resistant human Cal27CisR cells using Boc-Lys(epsilon-Ac)-AMC as substrate preincubated with compound for 18 hrs followed by substrate addition and measured after 3 hrs by NOVOstar microplate reader analysis

A2780cisR [31] = experiment: Induction of apoptosis in cisplatin resistant human A2780 cisR cells assessed as increase in Bcl-2 protein level at 2 uM in presence of cisplatin at 16 uM preincubated with compound for 48 hrs prior to addition of cisplatin and measured after 24 hrs by Immunoblotting analysis; type: functional, cell-based; conditions: time 72.0 hrs
cells [32] = conditions: Homo sapiens, A2780cisR; remark: listed apart in the source
Description: Inhibition of class I/6 HDAC (unknown origin) in cisplatin resistant human A2780 cisR cells using Boc-Lys(epsilon-Ac)-AMC as substrate preincubated with compound for 18 hrs followed by substrate addition and measured after 3 hrs by NOVOstar microplate reader analysis

CAL-27 [33] = experiment: Induction of apoptosis in human CAL-27 cells assessed as increase in apoptotic nuclei at sub-G1 phase at 0.316 uM in presence of cisplatin at 3 uM preincubated with compound for 48 hrs prior to addition of cisplatin and measured after 24 hrs by flow cytometric analysis; type: functional, cell-based; conditions: time 72.0 hrs
Cal27CisR [34] = experiment: Induction of apoptosis in cisplatin resistant human Cal27CisR cells assessed as increase in apoptotic nuclei at sub-G1 phase at 0.316 uM in presence of cisplatin at 3 uM preincubated with compound for 48 hrs prior to addition of cisplatin and measured after 24 hrs by flow cytometric analysis; type: functional, cell-based; conditions: time 72.0 hrs
Cal27CisR [35] = experiment: Induction of cell cycle arrest in cisplatin resistant human Cal27CisR cells assessed as increase in p21 expression at 0.316 uM incubated for 48 hrs by Western blotting analysis; type: functional, cell-based
Cal27CisR [36] = experiment: Induction of apoptosis in cisplatin resistant human Cal27CisR cells assessed as increase in Bcl-2 protein level at 0.316 uM in presence of cisplatin at 16.5 uM preincubated with compound for 48 hrs prior to addition of cisplatin and measured after 24 hrs by Immunoblotting analysis; type: functional, cell-based; conditions: time 72.0 hrs

Compound | IC50 (cells [1]) | Activity (A2780cisR [2]) | Activity (Cal27CisR [3]) | Activity (A2780cisR [4]) | Activity (CAL-27 [5]) | IC50 (cells [6]) | IC50 (cells [7]) | Activity (A2780 [8]) | Activity (Cal27CisR [9]) | Activity (A2780 [10]) | Activity (Cal27CisR [11]) | Activity (CAL-27 [12]) | Activity (CAL-27 [13]) | Activity (A2780cisR [14]) | Activity (A2780cisR [15]) | IC50 (HL-60) | Activity (A2780cisR [16]) | Activity (A2780cisR [17]) | Activity (Cal27CisR [18]) | IC50 (cells [19]) | other results
CCCCNNC(=O)c1ccc(CN(CC(=O)NCc2ccccc2)C(=O)c2ccc(N(C)C)cc2)cc1 | 11000 nM | inactive | Active | inactive | Active | 263 nM | 15900 nM | Active | Active | Active; Remarkable Activation Observed | Active; Moderate Percentage Of Apoptotic Nuclei Observed | Active; Low Caspase Activation Observed | Active | Active | Active | 474 nM | Active | inactive | Active | 968 nM | Activity (CAL-27 [20]): Active; Activity (A2780cisR [21]): Active; Remarkable Activation Observed; Activity (CAL-27 [22]): Active; Activity (Cal27CisR [23]): Active; Activity (A2780cisR [24]): Active; Activity (Cal27CisR [25]): Active; Low Activation Observed; Activity (A2780 [26]): Active; IC50 (cells [27]): 2220 nM; Activity (CAL-27 [28]): Not active; Slight Increase Observed; Activity (A2780 [29]): Active; IC50 (cells [30]): 156 nM; Activity (A2780cisR [31]): Active; IC50 (cells [32]): 268 nM; Activity (CAL-27 [33]): Active; Activity (Cal27CisR [34]): Active; Activity (Cal27CisR [35]): Active; Activity (Cal27CisR [36]): Not active; Slight Increase Observed
CCCNNC(=O)c1ccc(CN(CC(=O)NCc2ccccc2)C(=O)c2ccc(N(C)C)cc2)cc1 | 12500 nM | inactive | Active | inactive | Active | 235 nM | 115000 nM | Active | Active | Active; Remarkable Activation Observed | Active; Moderate Percentage Of Apoptotic Nuclei Observed | Active; Low Caspase Activation Observed | Active | Active | Active | 431 nM | Active | inactive | Active | 801 nM | Activity (CAL-27 [20]): Active; Activity (A2780cisR [21]): Active; Remarkable Activation Observed; Activity (CAL-27 [22]): Active; Activity (Cal27CisR [23]): Active; Activity (A2780cisR [24]): Active; Activity (Cal27CisR [25]): Active; Low Activation Observed; Activity (A2780 [26]): Active; IC50 (cells [27]): 2320 nM; Activity (CAL-27 [28]): Not active; Slight Increase Observed; Activity (A2780 [29]): Active; IC50 (cells [30]): 155 nM; Activity (A2780cisR [31]): Active; IC50 (cells [32]): 295 nM; Activity (CAL-27 [33]): Active; Activity (Cal27CisR [34]): Active; Activity (Cal27CisR [35]): Active; Activity (Cal27CisR [36]): Not active; Slight Increase Observed
